Results taken from PubChem BioAssay AID2060890 (Molecular Pharmacology Branch, DTP, NCI, 2025).

System: LG0703-F948-PDC complex spheroid viability
Test: Anticancer human tumor LG0703-F948-PDC patient-derived lung adenocarcinoma cell line growth inhibition [RAS]
Conditions: for IC50: curve of first compound; for viability, T/C: stronger effect = lower value
Outline: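 Tumour cells grown as complex spheroids with HUVEC endothelial cells and mesenchymal stem cells, treated with RAS pathway inhibitor combinations. Each agent spans half-log steps from near clinical Cmax, or 10 microM where Cmax is unknown.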
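Note: spheroids exposed to agents for 7 days.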
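Throughout, for viability, T/C: 100% = DMSO vehicle wells.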

Question: Which IC50 (second compound 0.0316 µM) does the source give for C=CC(=O)Nc1cc(Nc2nccc(-c3cn(C)c4ccccc34)n2)c(OC)cc1N(C)CCN(C)C + C#Cc1c(F)ccc2cc(O)cc(-c3ncc4c(N5CC6CCC(C5)N6)nc(OCC56CCCN5CC(F)C6)nc4c3F)c12 here?
Answer: 11 nM

Question: What about the IC50 (second compound 0.1 µM) of the same molecule?
Answer: 9.22 nM

Question: What about the IC50 (second compound 0.316 µM) of the same molecule?
Answer: 6.02 nM

Question: And the IC50 (second compound 1 µM)?
Answer: 4.22 nM

Question: And the IC50 (second compound 3.16 µM)?
Answer: < 3.16 nM

Question: What about the IC50 (second compound 10 µM) of the same molecule?
Answer: < 3.16 nM

Question: And the viability, T/C (second compound 0.0316 µM, first compound 0.00316 µM)?
Answer: 96.5%

Question: And the viability, T/C (second compound 0.0316 µM, first compound 0.01 µM)?
Answer: 53%

Question: What about the viability, T/C (second compound 0.0316 µM, first compound 0.0316 µM) of the same molecule?
Answer: 17.6%

Question: What about the viability, T/C (second compound 0.0316 µM, first compound 0.1 µM) of the same molecule?
Answer: 12.5%

Question: What about the viability, T/C (second compound 0.0316 µM, first compound 0.316 µM) of the same molecule?
Answer: 11.1%

Question: And the viability, T/C (second compound 0.0316 µM, first compound 1 µM)?
Answer: 8.76%

Question: What about the viability, T/C (second compound 0.1 µM, first compound 0.00316 µM) of the same molecule?
Answer: 84.3%

Question: And the viability, T/C (second compound 0.1 µM, first compound 0.01 µM)?
Answer: 47.4%

Question: And the viability, T/C (second compound 0.1 µM, first compound 0.0316 µM)?
Answer: 15.8%

Question: And the viability, T/C (second compound 0.1 µM, first compound 0.1 µM)?
Answer: 14%

Question: And the viability, T/C (second compound 0.1 µM, first compound 0.316 µM)?
Answer: 13.8%

Question: And the viability, T/C (second compound 0.1 µM, first compound 1 µM)?
Answer: 8.56%

Question: What about the viability, T/C (second compound 0.316 µM, first compound 0.00316 µM) of the same molecule?
Answer: 69.2%

Question: What about the viability, T/C (second compound 0.316 µM, first compound 0.01 µM) of the same molecule?
Answer: 34.9%

Question: What about the viability, T/C (second compound 0.316 µM, first compound 0.0316 µM) of the same molecule?
Answer: 15.6%

Question: What about the viability, T/C (second compound 0.316 µM, first compound 0.1 µM) of the same molecule?
Answer: 11.2%

Question: What about the viability, T/C (second compound 0.316 µM, first compound 0.316 µM) of the same molecule?
Answer: 10.1%

Question: And the viability, T/C (second compound 0.316 µM, first compound 1 µM)?
Answer: 8.31%

Question: And the viability, T/C (second compound 1 µM, first compound 0.00316 µM)?
Answer: 56.2%

Question: What about the viability, T/C (second compound 1 µM, first compound 0.01 µM) of the same molecule?
Answer: 31.5%

Question: What about the viability, T/C (second compound 1 µM, first compound 0.0316 µM) of the same molecule?
Answer: 14.2%

Question: And the viability, T/C (second compound 1 µM, first compound 0.1 µM)?
Answer: 10.2%

Question: What about the viability, T/C (second compound 1 µM, first compound 0.316 µM) of the same molecule?
Answer: 9.15%

Question: What about the viability, T/C (second compound 1 µM, first compound 1 µM) of the same molecule?
Answer: 7.05%

Question: And the viability, T/C (second compound 3.16 µM, first compound 0.00316 µM)?
Answer: 48.8%

Question: And the viability, T/C (second compound 3.16 µM, first compound 0.01 µM)?
Answer: 25%

Question: What about the viability, T/C (second compound 3.16 µM, first compound 0.0316 µM) of the same molecule?
Answer: 10.1%

Question: And the viability, T/C (second compound 3.16 µM, first compound 0.1 µM)?
Answer: 11.4%

Question: And the viability, T/C (second compound 3.16 µM, first compound 0.316 µM)?
Answer: 8.78%

Question: And the viability, T/C (second compound 3.16 µM, first compound 1 µM)?
Answer: 6.8%

Question: And the viability, T/C (second compound 10 µM, first compound 0.00316 µM)?
Answer: 33.5%

Question: And the viability, T/C (second compound 10 µM, first compound 0.01 µM)?
Answer: 10.2%

Question: And the viability, T/C (second compound 10 µM, first compound 0.0316 µM)?
Answer: 10.5%

Question: And the viability, T/C (second compound 10 µM, first compound 0.1 µM)?
Answer: 7.37%

Question: And the viability, T/C (second compound 10 µM, first compound 0.316 µM)?
Answer: 6.33%

Question: What about the viability, T/C (second compound 10 µM, first compound 1 µM) of the same molecule?
Answer: 4.43%

Question: What does the source list for CC(C)n1nc(-c2ccc3oc(N)nc3c2)c2c(N)ncnc21 + CCn1c(-c2cccnc2C(C)OC)c2c3cc(ccc31)N1CCOC(CC(NC(=O)C(C(C)C)N(C)C(=O)C3(F)CCN(C(=O)C#CC(C)(C)N(C)C)CC3)C(=O)N3CCCC(N3)C(=O)OCC(C)(C)C2)C1?
Answer: IC50 (second compound 0.000949 µM): 6.03 nM; IC50 (second compound 0.003 µM): 8.31 nM; IC50 (second compound 0.00949 µM): 7.72 nM; IC50 (second compound 0.03 µM): 8.1 nM; IC50 (second compound 0.0949 µM): 1.85 nM; IC50 (second compound 0.3 µM): < 0.316 nM; viability, T/C (second compound 0.000949 µM, first compound 0.000316 µM): 105%; viability, T/C (second compound 0.000949 µM, first compound 0.001 µM): 72.7%; viability, T/C (second compound 0.000949 µM, first compound 0.00316 µM): 64.1%; viability, T/C (second compound 0.000949 µM, first compound 0.01 µM): 43.5%; viability, T/C (second compound 0.000949 µM, first compound 0.0316 µM): 27%; viability, T/C (second compound 0.000949 µM, first compound 0.1 µM): 19.9%; viability, T/C (second compound 0.003 µM, first compound 0.000316 µM): 87%; viability, T/C (second compound 0.003 µM, first compound 0.001 µM): 79.4%; viability, T/C (second compound 0.003 µM, first compound 0.00316 µM): 65%; viability, T/C (second compound 0.003 µM, first compound 0.01 µM): 49.8%; viability, T/C (second compound 0.003 µM, first compound 0.0316 µM): 25.5%; viability, T/C (second compound 0.003 µM, first compound 0.1 µM): 17.9%; viability, T/C (second compound 0.00949 µM, first compound 0.000316 µM): 88.2%; viability, T/C (second compound 0.00949 µM, first compound 0.001 µM): 83.8%; viability, T/C (second compound 0.00949 µM, first compound 0.00316 µM): 59.9%; viability, T/C (second compound 0.00949 µM, first compound 0.01 µM): 48.2%; viability, T/C (second compound 0.00949 µM, first compound 0.0316 µM): 28.7%; viability, T/C (second compound 0.00949 µM, first compound 0.1 µM): 17.2%; viability, T/C (second compound 0.03 µM, first compound 0.000316 µM): 92.4%; viability, T/C (second compound 0.03 µM, first compound 0.001 µM): 87.6%; viability, T/C (second compound 0.03 µM, first compound 0.00316 µM): 68.8%; viability, T/C (second compound 0.03 µM, first compound 0.01 µM): 46.8%; viability, T/C (second compound 0.03 µM, first compound 0.0316 µM): 23.9%; viability, T/C (second compound 0.03 µM, first compound 0.1 µM): 15.6%; viability, T/C (second compound 0.0949 µM, first compound 0.000316 µM): 67.4%; viability, T/C (second compound 0.0949 µM, first compound 0.001 µM): 57.5%; viability, T/C (second compound 0.0949 µM, first compound 0.00316 µM): 41.2%; viability, T/C (second compound 0.0949 µM, first compound 0.01 µM): 36.8%; viability, T/C (second compound 0.0949 µM, first compound 0.0316 µM): 18.5%; viability, T/C (second compound 0.0949 µM, first compound 0.1 µM): 13.2%; viability, T/C (second compound 0.3 µM, first compound 0.000316 µM): 43.3%; viability, T/C (second compound 0.3 µM, first compound 0.001 µM): 36.8%; viability, T/C (second compound 0.3 µM, first compound 0.00316 µM): 29.3%; viability, T/C (second compound 0.3 µM, first compound 0.01 µM): 21.9%; viability, T/C (second compound 0.3 µM, first compound 0.0316 µM): 11.7%; viability, T/C (second compound 0.3 µM, first compound 0.1 µM): 8.29%
